This note sets out measurements from US9745307B2, “Compounds that are ERK inhibitors” (Merck Sharp & Dohme Corp., priority 2013, dated 2017).

As a reminder, the IC50 is the concentration that gives 50% inhibition.

Sequence of phosphorylated active hERK2 enzyme (P28482 whole entry): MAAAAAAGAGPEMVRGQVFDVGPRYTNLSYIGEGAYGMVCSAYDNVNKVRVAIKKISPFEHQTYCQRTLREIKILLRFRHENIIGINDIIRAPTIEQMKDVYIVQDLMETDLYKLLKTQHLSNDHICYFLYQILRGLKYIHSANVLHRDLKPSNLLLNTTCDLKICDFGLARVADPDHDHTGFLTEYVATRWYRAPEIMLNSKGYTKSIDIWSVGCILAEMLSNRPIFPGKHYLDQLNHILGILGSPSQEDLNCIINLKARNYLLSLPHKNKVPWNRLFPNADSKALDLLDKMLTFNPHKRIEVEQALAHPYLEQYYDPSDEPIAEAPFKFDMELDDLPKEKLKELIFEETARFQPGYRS

The assay has as its target phosphorylated active hERK2 enzyme (Homo sapiens (Human), UniProt P28482). Description: Active Human ERK2 (hERK2) Activity Assay (IMAP-FP). To be noted: 0.5 nM hERK2, 30 μM ATP, 60 minutes reaction; read-out: ERK 2 Human average IC50. The format is biochemical. As for the experimental part: Active Human ERK2 (hERK2) Activity Assay:
Activated ERK2 activity was determined in an IMAP-FP assay (Molecular Devices).
For the compound `Cc1cc(-c2n[nH]c3cc4c(cc23)CCC(=O)N4O)ccn1` [Example 8, 8-hydroxy-3-(2-methylpyridin-4-yl)-5,6-dihydro-1H-pyrazolo[4,3-g]quinolin-7(8H)-one], the IC50 was 3.6 nM.

Take `C[C@H](c1ccccc1)N1Cc2cc3c(-c4ccc5nnn(C)c5c4)n[nH]c3cc2NC1=O` [Example 26, (R)-3-(1-methyl-1H-benzo[d][1,2,3]triazol-6-yl)-6-(1-phenylethyl)-5,6-dihydro-1H-pyrazolo[4,3-g]quinazolin-7(8H)-one]: the half-maximal inhibitory concentration (IC50) was 0.3 nM.

Take `CCNc1n[nH]c2cc3c(cc12)CN([C@H](C)c1ccccc1)C(=O)N3` [Example 29, (R)-3-(ethylamino)-6-(1-phenylethyl)-5,6-dihydro-1H-pyrazolo[4,3-g]quinazolin-7(8H)-one]: the IC50 came out at 22 nM.

Turning to `C[C@H](c1ccccc1)N1Cc2cc3c(N[C@@H](C)C(F)(F)F)n[nH]c3cc2NC1=O` [Example 30, 6-((R)-1-phenylethyl)-3-(((S)-1,1,1-trifluoropropan-2-yl)amino)-5,6-dihydro-1H-pyrazolo[4,3-g]quinazolin-7(8H)-one], the IC50 worked out at 25 nM.

For `C[C@H](c1ccccc1)N1Cc2cc3cn[nH]c3cc2NC1=O` [Example 31, (R)-6-(1-phenylethyl)-5,6-dihydro-1H-pyrazolo[4,3-g]quinazolin-7(8H)-one], the IC50 worked out at 55 nM.

As for `C[C@H](c1ccccc1)N1Cc2cc3c(N)n[nH]c3cc2NC1=O` [Example 32, (R)-3-amino-6-(1-phenylethyl)-5,6-dihydro-1H-pyrazolo[4,3-g]quinazolin-7(8H)-one], the IC50 was 21 nM.

On to `COC(=O)Nc1n[nH]c2cc3c(cc12)CN([C@H](C)c1ccccc1)C(=O)N3` [Example 33, (R)-methyl(7-oxo-6-(1-phenylethyl)-5,6,7,8-tetrahydro-1H-pyrazolo[4,3-g]quinazolin-3-yl)carbamate], for which the IC50 came to 5.2 nM.

`C[C@H](c1ccccc1)n1c(=O)[nH]c2cc3[nH]nc(N)c3cc2c1=O` [Example 44, (R)-3-amino-6-(1-phenylethyl)-1H-pyrazolo[4,3-g]quinazoline-5,7(6H,8H)-dione]: the IC50 stood at 45 nM.
